Measurements from ChEMBL document CHEMBL5291721, “A preclinical secondary pharmacology resource illuminates target-adverse drug reaction associations of marketed drugs” (Nat Commun, 2023).

What was measured:
[1] = molecular target: T1, Alpha-1A adrenergic receptor (Homo sapiens, UniProt P35348); format: functional, cell-based
T1 sequence (P35348 whole entry): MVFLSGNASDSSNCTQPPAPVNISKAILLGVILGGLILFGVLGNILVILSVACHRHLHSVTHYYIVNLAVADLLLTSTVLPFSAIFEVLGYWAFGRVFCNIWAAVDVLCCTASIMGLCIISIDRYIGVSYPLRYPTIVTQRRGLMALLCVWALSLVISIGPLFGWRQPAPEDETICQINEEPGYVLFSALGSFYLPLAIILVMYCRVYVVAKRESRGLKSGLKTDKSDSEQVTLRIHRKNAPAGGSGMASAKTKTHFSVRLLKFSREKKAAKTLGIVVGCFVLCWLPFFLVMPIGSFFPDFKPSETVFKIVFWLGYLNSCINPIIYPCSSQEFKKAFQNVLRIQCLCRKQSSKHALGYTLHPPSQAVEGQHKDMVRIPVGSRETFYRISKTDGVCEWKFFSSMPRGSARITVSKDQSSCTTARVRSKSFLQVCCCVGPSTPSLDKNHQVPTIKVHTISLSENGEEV

[2] = molecular target: T2, Alpha-2A adrenergic receptor (Homo sapiens, UniProt P08913); format: functional, cell-based
T2 sequence (P08913 whole entry): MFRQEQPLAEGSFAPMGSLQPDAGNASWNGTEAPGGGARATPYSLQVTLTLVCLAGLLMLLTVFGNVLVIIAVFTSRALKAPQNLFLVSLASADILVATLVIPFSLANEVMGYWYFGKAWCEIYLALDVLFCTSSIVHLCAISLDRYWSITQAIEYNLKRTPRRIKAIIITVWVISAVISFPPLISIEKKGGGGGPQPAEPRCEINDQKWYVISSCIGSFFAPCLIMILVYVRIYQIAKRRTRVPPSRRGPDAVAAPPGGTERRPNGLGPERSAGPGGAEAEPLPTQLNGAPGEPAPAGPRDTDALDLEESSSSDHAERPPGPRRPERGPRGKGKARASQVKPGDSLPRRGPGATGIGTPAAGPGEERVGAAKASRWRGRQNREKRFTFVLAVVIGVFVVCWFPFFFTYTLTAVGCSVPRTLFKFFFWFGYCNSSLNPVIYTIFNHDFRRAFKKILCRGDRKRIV

[3] = molecular target: Histamine H1 receptor (Homo sapiens, UniProt P35367)
[4] = molecular target: Voltage-gated inwardly rectifying potassium channel KCNH2 (Homo sapiens, UniProt Q12809); format: functional; details: read-out: AC50
[5] = molecular target: T3, Adenosine receptor A1 (Homo sapiens, UniProt P30542)
T3 sequence (P30542 whole entry): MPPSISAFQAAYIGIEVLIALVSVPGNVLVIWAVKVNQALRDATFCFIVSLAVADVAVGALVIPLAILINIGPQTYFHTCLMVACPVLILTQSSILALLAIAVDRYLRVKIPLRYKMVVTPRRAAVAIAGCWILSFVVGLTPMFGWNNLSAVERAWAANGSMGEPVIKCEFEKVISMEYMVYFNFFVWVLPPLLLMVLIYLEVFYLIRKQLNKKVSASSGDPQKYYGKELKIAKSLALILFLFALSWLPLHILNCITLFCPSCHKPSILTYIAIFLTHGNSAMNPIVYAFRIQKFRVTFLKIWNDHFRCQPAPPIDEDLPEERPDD

[6] = molecular target: Melanocortin receptor 3 (Homo sapiens, UniProt P41968)
[7] = molecular target: T4, Prostaglandin G/H synthase 1 (Rattus norvegicus, UniProt Q63921); format: functional
T4 sequence (Q63921 whole entry): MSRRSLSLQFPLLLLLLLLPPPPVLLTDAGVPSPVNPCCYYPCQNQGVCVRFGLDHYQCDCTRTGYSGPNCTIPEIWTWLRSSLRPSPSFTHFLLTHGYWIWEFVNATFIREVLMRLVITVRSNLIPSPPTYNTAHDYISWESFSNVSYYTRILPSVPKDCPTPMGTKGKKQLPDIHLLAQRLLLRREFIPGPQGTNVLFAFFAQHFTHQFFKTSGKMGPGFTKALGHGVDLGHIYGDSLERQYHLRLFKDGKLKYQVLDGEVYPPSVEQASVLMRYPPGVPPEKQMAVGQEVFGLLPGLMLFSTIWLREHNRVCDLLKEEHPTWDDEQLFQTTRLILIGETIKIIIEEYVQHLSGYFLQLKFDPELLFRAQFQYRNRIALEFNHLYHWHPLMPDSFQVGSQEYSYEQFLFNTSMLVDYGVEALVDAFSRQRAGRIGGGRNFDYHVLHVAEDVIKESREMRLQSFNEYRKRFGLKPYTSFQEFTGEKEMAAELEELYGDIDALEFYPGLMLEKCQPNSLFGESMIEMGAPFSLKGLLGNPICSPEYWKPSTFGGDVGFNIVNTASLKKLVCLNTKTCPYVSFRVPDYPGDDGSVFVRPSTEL
Further: assay procedure not described here.

Melanocortin receptor 3, sequence (P41968 whole entry): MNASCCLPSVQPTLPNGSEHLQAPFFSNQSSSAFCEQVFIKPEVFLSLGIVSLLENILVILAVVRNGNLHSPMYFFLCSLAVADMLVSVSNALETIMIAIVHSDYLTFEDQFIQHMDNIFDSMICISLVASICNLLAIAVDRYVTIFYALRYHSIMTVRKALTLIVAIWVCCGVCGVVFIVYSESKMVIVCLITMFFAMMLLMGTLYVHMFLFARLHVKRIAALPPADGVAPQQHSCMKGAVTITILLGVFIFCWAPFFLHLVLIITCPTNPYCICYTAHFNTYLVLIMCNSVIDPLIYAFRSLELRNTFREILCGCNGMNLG
Voltage-gated inwardly rectifying potassium channel KCNH2, sequence (Q12809 whole entry): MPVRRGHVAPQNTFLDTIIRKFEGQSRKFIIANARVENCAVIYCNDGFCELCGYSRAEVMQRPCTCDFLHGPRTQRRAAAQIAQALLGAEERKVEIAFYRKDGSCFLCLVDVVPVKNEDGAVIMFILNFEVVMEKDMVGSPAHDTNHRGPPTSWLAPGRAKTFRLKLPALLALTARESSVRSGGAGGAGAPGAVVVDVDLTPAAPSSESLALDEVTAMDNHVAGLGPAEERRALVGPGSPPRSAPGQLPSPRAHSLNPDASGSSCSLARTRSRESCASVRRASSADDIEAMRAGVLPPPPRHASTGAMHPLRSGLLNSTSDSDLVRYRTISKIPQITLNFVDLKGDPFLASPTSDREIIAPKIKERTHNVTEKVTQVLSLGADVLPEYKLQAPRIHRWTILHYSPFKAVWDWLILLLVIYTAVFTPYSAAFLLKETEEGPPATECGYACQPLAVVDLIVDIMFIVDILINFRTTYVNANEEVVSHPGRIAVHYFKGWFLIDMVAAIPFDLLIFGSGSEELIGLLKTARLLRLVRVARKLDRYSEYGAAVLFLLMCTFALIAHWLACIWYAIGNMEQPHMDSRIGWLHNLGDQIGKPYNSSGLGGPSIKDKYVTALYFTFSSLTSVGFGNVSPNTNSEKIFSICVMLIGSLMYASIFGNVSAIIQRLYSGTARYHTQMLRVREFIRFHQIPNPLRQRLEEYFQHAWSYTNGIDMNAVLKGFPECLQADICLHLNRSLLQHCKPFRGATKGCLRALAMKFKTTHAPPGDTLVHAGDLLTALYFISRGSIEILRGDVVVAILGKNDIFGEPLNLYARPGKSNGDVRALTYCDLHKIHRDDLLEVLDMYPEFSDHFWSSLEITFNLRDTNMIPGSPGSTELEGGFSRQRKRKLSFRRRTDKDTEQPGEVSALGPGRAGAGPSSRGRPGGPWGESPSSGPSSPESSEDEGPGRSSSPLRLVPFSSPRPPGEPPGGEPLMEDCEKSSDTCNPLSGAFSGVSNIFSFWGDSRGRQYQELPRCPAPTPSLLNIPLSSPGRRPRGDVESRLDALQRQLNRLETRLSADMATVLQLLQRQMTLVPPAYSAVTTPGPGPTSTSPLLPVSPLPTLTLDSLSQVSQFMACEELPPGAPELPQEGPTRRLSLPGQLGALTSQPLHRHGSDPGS
Histamine H1 receptor, sequence (P35367 whole entry): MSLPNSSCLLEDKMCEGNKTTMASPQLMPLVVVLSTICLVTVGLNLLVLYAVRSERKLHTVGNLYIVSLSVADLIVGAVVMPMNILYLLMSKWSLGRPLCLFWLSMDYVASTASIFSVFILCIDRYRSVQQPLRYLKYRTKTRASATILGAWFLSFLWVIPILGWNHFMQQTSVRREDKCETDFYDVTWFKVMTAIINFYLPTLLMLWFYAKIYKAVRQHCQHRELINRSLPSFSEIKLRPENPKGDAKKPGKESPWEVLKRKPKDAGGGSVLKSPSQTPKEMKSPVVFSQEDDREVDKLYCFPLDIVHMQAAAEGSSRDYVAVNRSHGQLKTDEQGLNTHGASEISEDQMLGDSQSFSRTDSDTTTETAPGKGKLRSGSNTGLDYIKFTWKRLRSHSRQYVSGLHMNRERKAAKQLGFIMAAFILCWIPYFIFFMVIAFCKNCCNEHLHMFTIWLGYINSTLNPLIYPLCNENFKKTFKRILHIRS

| Compound | AC50 [1] | AC50 [2] | AC50 [3] | AC50 [4] | AC50 [5] | AC50 [6] | AC50 [7] |
| --- | --- | --- | --- | --- | --- | --- | --- |
| C#CCN(C)Cc1ccccc1 [PARGYLINE] | > 30 µM | > 30 µM | > 30 µM | > 30 µM |  |  |  |
| CC(C)(CO)c1cc2cc(NC(=O)C3(c4ccc5c(c4)OC(F)(F)O5)CC3)c(F)cc2n1C[C@@H](O)CO [TEZACAFTOR] | > 30 µM | > 30 µM | > 30 µM | > 30 µM | > 30 µM | > 30 µM | > 30 µM |
| CCN(CC)CCn1c(=O)c(Cc2ccc(OC)cc2)nc2ccccc21 [CAROVERINE] | > 30 µM | > 30 µM | 25 µM | 0.16 µM | > 30 µM | > 30 µM | 15.8 µM |
| CC[N+](CC)(CCNC(=O)C(=O)NCC[N+](CC)(CC)Cc1ccccc1Cl)Cc1ccccc1Cl [AMBENONIUM] |  | > 30 µM | > 30 µM | 7.8 µM | > 30 µM | > 30 µM | > 30 µM |
| NCCCCCC(=O)O [AMINOCAPROIC ACID] |  | > 10 µM |  | > 30 µM | > 10 µM | > 10 µM | > 10 µM |
| CCN(CCO)CCCC(C)Nc1ccnc2cc(Cl)ccc12 (configuration not stated) [HYDROXYCHLOROQUINE] |  | > 10 µM |  | 7.4 µM | > 10 µM | > 10 µM | > 10 µM |
| NCCCNCCSP(=O)(O)O [AMIFOSTINE] | > 30 µM | > 30 µM |  | > 30 µM | > 30 µM | > 30 µM | > 30 µM |
| CC(C)C[C@H](NC(=O)[C@H](Cc1ccccc1)NC(=O)c1cnccn1)B(O)O [BORTEZOMIB] |  | > 30 µM | > 30 µM | > 30 µM | > 30 µM | > 30 µM | > 30 µM |
| CC(=O)SCC(Cc1ccccc1)C(=O)NCC(=O)OCc1ccccc1 (configuration not stated) [RACECADOTRIL] |  | > 30 µM | > 30 µM | > 30 µM | > 30 µM | > 30 µM | > 30 µM |
| OCCOCCN1CCN(C(c2ccccc2)c2ccc(Cl)cc2)CC1 (configuration not stated) [HYDROXYZINE] | > 30 µM | > 10 µM | 0.039 µM |  | > 30 µM | > 30 µM | > 30 µM |
| CN1CC2c3ccccc3Oc3ccc(Cl)cc3C2C1 (configuration not stated) [ASENAPINE] | > 30 µM | > 30 µM |  |  | > 30 µM | > 30 µM | > 30 µM |
| CS(=O)(=O)Nc1ccc([N+](=O)[O-])cc1Oc1ccccc1 [NIMESULIDE] | > 30 µM | > 30 µM |  | > 30 µM |  | > 30 µM | > 30 µM |
| COc1cccc2c1C(=O)c1c(O)c3c(c(O)c1C2=O)C[C@@](O)(C(=O)CO)C[C@@H]3O[C@H]1C[C@H](N)[C@H](O[C@@H]2CCCCO2)[C@H](C)O1 [PIRARUBICIN] |  |  |  | > 30 µM |  |  |  |
| CC(C)NCC(O)COc1ccc(CC(N)=O)cc1 (configuration not stated) [ATENOLOL] | > 30 µM | > 30 µM |  |  | > 30 µM | > 30 µM | > 30 µM |
| CCOC(=O)Nc1ccc(NCc2ccc(F)cc2)nc1N [FLUPIRTINE] |  | > 30 µM | > 30 µM | 27 µM | > 30 µM | > 30 µM |  |
| CO[C@@]1(NC(=O)C(C(=O)O)c2ccc(O)cc2)C(=O)N2C(C(=O)O)=C(CSc3nnnn3C)CO[C@@H]21 (some centres not stated) [MOXALACTAM] |  |  |  | > 30 µM |  |  |  |
| C[C@H](Nc1ncnc2[nH]cnc12)c1cc2cccc(Cl)c2c(=O)n1-c1ccccc1 [DUVELISIB] | > 30 µM | > 30 µM | > 30 µM |  | > 30 µM | > 30 µM | > 30 µM |

| Compound | AC50 [1] | AC50 [2] | AC50 [3] | AC50 [4] | AC50 [5] | AC50 [6] | AC50 [7] |
| --- | --- | --- | --- | --- | --- | --- | --- |
| C[C@H](CS)C(=O)N1CCC[C@H]1C(=O)O [CAPTOPRIL] | > 30 µM | > 10 µM |  |  | > 30 µM | > 30 µM | > 30 µM |
| CNC1(C)C2CCC(C2)C1(C)C (configuration not stated) [MECAMYLAMINE] |  | > 10 µM | > 10 µM | > 30 µM | > 10 µM | > 10 µM | > 10 µM |
| CCCCCCCC/C=C\CCCCCCCC(=O)O [OLEIC ACID] |  |  |  | > 30 µM |  |  |  |
| O=C(O)COC(=O)Cc1ccccc1Nc1c(Cl)cccc1Cl [ACECLOFENAC] | > 30 µM | > 10 µM |  | > 30 µM | > 30 µM | > 30 µM | > 30 µM |
| CCOc1ccccc1OCCN[C@H](C)Cc1ccc(OC)c(S(N)(=O)=O)c1 [TAMSULOSIN] |  | > 30 µM | > 10 µM | 6.95 µM | > 30 µM | > 30 µM | > 30 µM |
| COC(=O)CCc1ccc(OCC(O)CNC(C)C)cc1 (configuration not stated) [ESMOLOL] | > 30 µM | > 30 µM |  | > 30 µM | > 30 µM | > 30 µM | > 30 µM |
| CCC[C@@]1(CCc2ccccc2)CC(O)=C([C@H](CC)c2cccc(NS(=O)(=O)c3ccc(C(F)(F)F)cn3)c2)C(=O)O1 | > 30 µM | > 30 µM | > 30 µM |  | > 30 µM | > 30 µM | 5.8 µM |
| Nc1nnc(-c2cccc(Cl)c2Cl)c(N)n1 [LAMOTRIGINE] | > 30 µM | > 10 µM |  |  | > 30 µM | > 30 µM | > 30 µM |
| CCC1(c2ccccc2)C(=O)NCNC1=O [PRIMIDONE] |  | > 10 µM |  | > 30 µM | > 10 µM | > 10 µM | > 10 µM |
| CO[C@@H]1[C@@H](OC(N)=O)[C@@H](O)[C@H](Oc2ccc3c(O)c(NC(=O)c4ccc(O)c(CC=C(C)C)c4)c(=O)oc3c2C)OC1(C)C [NOVOBIOCIN] | > 30 µM | > 30 µM | > 30 µM |  | > 30 µM | > 30 µM | > 30 µM |
| CCCCCCCCCCCCCCCC(=O)OC[C@H](COP(=O)([O-])OCC[N+](C)(C)C)OC(=O)CCCCCCCCCCCCCCC [COLFOSCERIL PALMITATE] |  |  |  | > 30 µM |  |  |  |
| O=c1[nH]cc(F)c(=O)[nH]1 [FLUOROURACIL] |  |  |  | > 30 µM | > 30 µM | > 30 µM | > 30 µM |
| O=C(c1ccccc1)c1ccc2n1CCC2C(=O)O (configuration not stated) [KETOROLAC] | > 30 µM | > 30 µM |  | > 30 µM | > 10 µM | > 10 µM | 0.0239 µM |
| CC#CC(=O)N1CCC[C@H]1c1nc(-c2ccc(C(=O)Nc3ccccn3)cc2)c2c(N)nccn12 [ACALABRUTINIB] |  |  |  | > 30 µM |  |  | > 30 µM |
| O=C(Cc1cccs1)N[C@@H]1C(=O)N2C(C(=O)[O-])=C(C[n+]3ccccc3)CS[C@H]12 [CEPHALORIDINE] | > 30 µM | > 30 µM | > 30 µM | > 30 µM |  |  |  |
| O=C(O)[C@@H](S)[C@@H](S)C(=O)O |  |  |  | > 30 µM |  |  |  |
| Cn1cnc2c(F)c(Nc3ccc(Br)cc3F)c(C(=O)NOCCO)cc21 [BINIMETINIB] | > 30 µM | > 30 µM | > 30 µM |  | > 30 µM | > 30 µM | > 30 µM |
